Source: patent US20070142431A1, “Quinoline 4-carboxamide derivatives and their use as neurokinin 3 (nk-3) receptor antagonists” (SmithKline Beecham Corporation, priority 2003, published 2007)

Legend:
NK3 receptor = target: T1, NK3 receptor (Homo sapiens, UniProt P29371); assay: NK binding affinity, scintillation proximity assay (SPA), 125I [MePhe7]-NKB; settings: plasma membrane from CHO cell lines expressing NK3, read-out: NK3 pKi (converted)
T1 construct: expressed in transfected cells; host or cells: CHO cell line, plasma membrane preparation
T1 sequence (P29371 1-465): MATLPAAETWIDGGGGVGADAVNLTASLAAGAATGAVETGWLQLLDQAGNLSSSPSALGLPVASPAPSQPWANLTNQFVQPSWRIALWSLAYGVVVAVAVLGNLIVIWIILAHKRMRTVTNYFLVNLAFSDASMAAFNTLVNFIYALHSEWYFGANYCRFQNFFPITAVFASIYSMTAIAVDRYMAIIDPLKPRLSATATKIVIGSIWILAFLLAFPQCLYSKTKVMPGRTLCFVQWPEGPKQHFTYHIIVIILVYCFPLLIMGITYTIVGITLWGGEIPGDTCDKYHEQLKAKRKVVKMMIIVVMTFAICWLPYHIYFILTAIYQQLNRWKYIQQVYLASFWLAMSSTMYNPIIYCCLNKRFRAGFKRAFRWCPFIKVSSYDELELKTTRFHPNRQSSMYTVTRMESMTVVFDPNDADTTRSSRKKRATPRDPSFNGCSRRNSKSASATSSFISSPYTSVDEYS
Protocol: (§1) The NK binding affinity of the compounds of the invention was determined using the following scintillation proximity assay (SPA) (see H. M. Sarau et al, J. Pharmacol. Experimental Therapeutics 1997, 281(3), 1303-1311; H. M. Sarau et al, J. Pharmacol. Experimental Therapeutics 2000, 295(1), 373-381; G. A. M. Giardina et al J.Med.Chem 1999, 42, 1053-1065). ^125I Substance P, ^125I NKA and ^125I [MePhe7]-NKB were used in the binding SPA of NK1, NK2 and NK3 receptor, respectively. Polystrene Leadseeker WGA-SPA beads (Amersham Biosciences) were mixed with plasma membrane prepared from CHO cell lines expressing NK1, NK2 or NK3 in a bead/membrane ratio of 20:1 (w/w) in assay buffer (75 mM Tris pH 7.8, 75 mM NaCl, 4 mM MnCl2, 1 mM EDTA, 0.05% Chaps, 1 mM PMSF). The mixture was placed on ice for 30 minutes to allow the formation of membrane/bead complex before BSA was added to a final concentration of 1%. After another 30 minutes incubation on ice, the bead/membrane complex was washed twice and suspended in assay buffer. ^125I-labelled ligands were then added to the bead/membrane complex. 30 μl of the resulting mixture was then dispensed into each well of a Nalgen NUNC 384-well plate with 1 μl compound pre-dispensed in 50% DMSO. The plates were then sealed and pulse spun at 1100 rpm. After 3 hours incubation at room temperature with shaking, the plates were spun for 2 min at 1100 rpm and measured in Viewlux imager (PerkinElmer) for 5 minutes with a 618-nm filter. Inhibition of radioactive ligand binding to its respective receptor was measured by the reduction of signal. pKi was calculated using Kd of each radioactive ligand determined in a separate experiment.

NK1 receptor = target: T2, NK1 receptor (Homo sapiens, UniProt P25103); assay: NK binding affinity, scintillation proximity assay (SPA), 125I Substance P; settings: plasma membrane from CHO cell lines expressing NK1, read-out: NK1 pKi (converted)
T2 construct: expressed in transfected cells; host or cells: CHO cell line, plasma membrane preparation
Protocol: as §1

[1] = Measurement of brain exposure; format: in vivo; settings: rats, orally dosed 3 mg/kg as 1% methylcellulose suspension; brain homogenate concentration vs time over 12 hr
Protocol: Compounds of the invention were orally dosed (3 mg/kg) to rats as 1% methylcellulose (w/v) suspensions. The rats were sacrificed after set time intervals and the concentration of the compound of the invention in brain homogenate was determined by protein precipitation followed by LC-MS-MS analysis of the extracts against standards prepared in brain homogenate. A graph of brain concentration against time was plotted over a 12 hr period. The area under the curve (AUC, units=hours.ng/g brain) was taken as a measure of brain exposure.

NK2 receptor = target: T3, NK2 receptor (Homo sapiens, UniProt P21452); assay: NK binding affinity, scintillation proximity assay (SPA), 125I NKA; settings: plasma membrane from CHO cell lines expressing NK2, read-out: NK2 pKi (converted)
T3 construct: expressed in transfected cells; host or cells: CHO cell line, plasma membrane preparation
T3 sequence (P21452 1-398): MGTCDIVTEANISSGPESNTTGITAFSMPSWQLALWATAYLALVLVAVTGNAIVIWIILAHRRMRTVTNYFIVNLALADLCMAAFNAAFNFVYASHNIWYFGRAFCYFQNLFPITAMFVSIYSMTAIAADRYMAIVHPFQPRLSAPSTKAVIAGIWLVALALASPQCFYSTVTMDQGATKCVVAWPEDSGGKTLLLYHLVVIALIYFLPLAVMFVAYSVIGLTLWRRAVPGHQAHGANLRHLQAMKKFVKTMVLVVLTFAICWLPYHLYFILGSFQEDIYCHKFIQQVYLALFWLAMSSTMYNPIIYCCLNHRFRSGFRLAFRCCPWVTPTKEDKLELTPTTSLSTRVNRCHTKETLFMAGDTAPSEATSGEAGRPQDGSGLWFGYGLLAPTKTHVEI
Protocol: as §1

T2 sequence (P25103 whole entry): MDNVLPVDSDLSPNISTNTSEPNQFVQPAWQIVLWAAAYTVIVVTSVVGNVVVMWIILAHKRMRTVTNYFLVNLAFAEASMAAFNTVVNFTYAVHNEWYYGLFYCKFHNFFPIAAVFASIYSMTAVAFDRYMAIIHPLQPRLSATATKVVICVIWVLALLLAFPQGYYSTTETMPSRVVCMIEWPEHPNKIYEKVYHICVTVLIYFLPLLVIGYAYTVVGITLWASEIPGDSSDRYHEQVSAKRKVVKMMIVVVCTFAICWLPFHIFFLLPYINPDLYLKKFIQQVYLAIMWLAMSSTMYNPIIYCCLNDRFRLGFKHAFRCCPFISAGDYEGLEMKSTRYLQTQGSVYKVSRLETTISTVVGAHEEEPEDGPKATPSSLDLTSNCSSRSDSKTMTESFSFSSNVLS

| SMILES | Ki (NK3 receptor) [nM] | Ki (NK1 receptor) [nM] | Brain Exposure (AUC, h · ng/g brain) [1] [h · ng/g brain] | Ki (NK2 receptor) [nM] |
| --- | --- | --- | --- | --- |
| O=C(N[C@H](c1cccc(F)c1)C1CC1)c1c(Cn2nccn2)c(-c2ccccc2)nc2ccccc12 [Example 37, 2-Phenyl-3-[1,2,3]triazol-2-ylmethyl-quinoline-4-carboxylic acid [(S)-1-cyclopropyl-1-(3-fluoro-phenyl)-methyl]-amide] | 2.51 | 631 | 2091 | 158 |
| O=C(N[C@H](c1cccc(F)c1)C1CC1)c1c(Cn2ncnn2)c(-c2ccccc2)nc2ccccc12 [Example 35, 2-Phenyl-3-tetrazol-2-ylmethyl-quinoline-4-carboxylic acid [(S)-1-cyclopropyl-1-(3-fluoro-phenyl)-methyl]-amide] | 3.98 | 1260 | 2361 | 251 |
| O=C(N[C@H](c1ccccc1)C1CC1)c1c(Cn2ncnn2)c(-c2cccc(F)c2)nc2ccccc12 [Example 45, 2-(3-Fluoro-phenyl)-3-tetrazol-2-ylmethyl-quinoline-4-carboxylic acid ((S)-1-cyclopropyl-1-phenyl-methyl)-amide] | 10 | 1260 | 1900 | 251 |
| O=C(N[C@H](c1ccccc1)C1CC1)c1c(Cn2nccn2)c(-c2cccc(F)c2)nc2ccccc12 [Example 1, 2-(3-Fluoro-phenyl)-3-[1,2,3]triazol-2-ylmethyl-quinoline4-carboxylic acid ((S)-1-cyclopropyl-1-phenyl-methyl)-amide] | 10 | 1000 | 1896 | 316 |
